# Measured values as given in patent US20170321283A1, “METHODS OF DIAGNOSING CANCER AND OF PREDICTING RESPONSE OF CANCER TO DENDROGENIN A TREATMENT” (INSERM (INSTITUT NATIONAL DE LA SANTÉ ET DE LA RECHERCHE …, priority 2014, published 2017).
# Entries after “also recorded” stand apart in the source; their conditions may differ.
# T1: hGSTA1 (Homo sapiens, UniProt P08263)
# T1 construct: purchased Novus NBP1-30307
# T1 sequence (P08263 1-222): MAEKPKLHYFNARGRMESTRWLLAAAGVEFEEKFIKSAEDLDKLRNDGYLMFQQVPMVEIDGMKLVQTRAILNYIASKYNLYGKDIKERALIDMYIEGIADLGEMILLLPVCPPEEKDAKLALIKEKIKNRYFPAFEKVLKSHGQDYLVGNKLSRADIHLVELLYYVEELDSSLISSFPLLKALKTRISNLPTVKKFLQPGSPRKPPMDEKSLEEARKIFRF
# B1: hGSTA1 (Homo sapiens) (protein)
# chain: T1 sequence (P08263 1-222)
# Assays:
# hGSTA1 [1] = target: T1, hGSTA1; assay: CDO-SG biosynthesis by hGSTA1 (glutathionylation of 5,6α-EC); format: biochemical; conditions: for Inhibition of CDO-SG biosynthesis: 1 and 10 mM CDNB, 1 and 10 μM HA, 1 μM 5,6β-EC, 10 μM CT, OCDO, 27-HC or 22(R)-HC (FIG. 2g-h)
# Procedure: (§1) The mixture was incubated for 30 minutes at 30° C., and the reaction was stopped by addition of 200 μl MeOH. After centrifugation 10 min at 18,000 g (4° C.), the supernatant was evaporated to dryness using a speed vac concentrator (Savant SP01010, Thermo scientific) and the residue was resuspended in 20 μl MeOH. Samples were spotted on HPTLC NanoSilgur 10×10 cm plates (Macherey Nagel, ref 811042) and developed using ethyl acetate/butanol/acetic acid/water (6:2:3:2) for CDO-SG and CH2Cl/MeOH/NH4OH 84:15:1 for DDA. Standards were co-spotted with samples. […] The radioactivity was quantified by liquid scintillation counting of the ethanol extract of the silica scraped at the retention factor (Rf) corresponding to authentic 5,6α-EC, CDO-SG or DDA standards.
# hGSTA1 [2] = target: T1, hGSTA1; assay: DDA biosynthesis by hGSTA1 (histaminylation of 5,6α-EC, DDAS activity); format: biochemical; conditions: for Inhibition of DDA biosynthesis (DDAS): 10 mM CDNB, 1 μM 5,6β-EC or 10 μM CT, OCDO, 27-HC or 22(R)-HC (FIG. 3d-e)
# Procedure: as §1
# hGSTA1 [3] = target: T1, hGSTA1; assay: Glutathionylation of CDNB by recombinant hGSTA1 (CDNB-SG biosynthesis); format: biochemical; conditions: for Inhibition of CDNB-SG biosynthesis: 1 and 10 μM 5,6α-EC or HA (FIG. 2c)
# Procedure: The mixture was incubated for 30 min at 30° C. and the reaction was stopped with 200 μl MeOH. Measurements were carried out spectrophotometrically at 345 nm (Am=8.5 mM^−1·cm^−1). The negative control corresponds to the same test performed in absence of hGSTA1.
# LXR = conditions: endogenous LXR ligand; cited from earlier work
# [4] = substrate: N[C@@H](CCC(=O)N[C@@H](CS)C(=O)NCC(=O)O)C(=O)O; assay: purified protein, by the assay type; conditions: other: substrates 5,6α-EC + GSH, product CDO-SG; pH 7.5; 30.0 °C
# [5] = substrate: NCCc1c[nH]cn1; assay: purified protein, by the assay type; conditions: other: substrates 5,6α-EC + histamine, product DDA; pH 7.5; 30.0 °C
# [6] = substrates 5,6α-EC + GSH, product CDO-SG, Table 1
# [7] = substrates 5,6α-EC + histamine, product DDA, Table 1
molecule,measurement,setting,value
CC(C)CCC[C@@H](C)[C@H]1CC[C@H]2[C@@H]3CC(=O)[C@@]4(O)C[C@@H](O)CC[C@]4(C)[C@H]3CC[C@]12C [OCDO],Inhibition of CDO-SG biosynthesis,hGSTA1 [1],potent inhibitors
"N[C@@H](CCC(=O)N[C@@H](CS)C(=O)NCC(=O)O)C(=O)O [GSH, glutathione]",IC50,"hGSTA1 [2]; read-out: IC50, inhibition of the biosynthesis of DDA",52 µM
same,Vm^GSH,hGSTA1 [1]; [6],1.50 pmol · min^−1 · mg · pr
same,Vm^GSH,hGSTA1 [3]; CDNB + GSH to CDNB-SG,8.12 μmol·min^−1·mg prot
"CC(C)CCC[C@@H](C)[C@H]1CC[C@H]2[C@@H]3C[C@H]4O[C@]45C[C@@H](O)CC[C@]5(C)[C@H]3CC[C@]12C [5,6β-EC, 5,6β-epoxy-cholesterol]",Inhibition of DDA biosynthesis (DDAS),hGSTA1 [2],most potent inhibitor; also recorded: potent inhibitor
same,Inhibition of CDO-SG biosynthesis,hGSTA1 [1],potent inhibitors
"CC(C)CCCC(C)[C@H]1CCC2C3C[C@@H](NCCc4cnc[nH]4)[C@@]4(O)C[C@@H](O)CC[C@]4(C)C3CC[C@@]21C (some centres unmarked) [DDA, 5-hydroxy-6-[2-(1H-imidazol-4-yl)ethylamino]cholestan-3-ol]",affinity for LXR,LXR,sub-μM
"CC(C)CCC[C@@H](C)[C@H]1CC[C@H]2[C@@H]3C[C@@H]4O[C@@]45C[C@@H](O)CC[C@]5(C)[C@H]3CC[C@]12C [5,6α-EC, 5,6α-epoxy-cholesterol]","catalytic efficiency higher to transform 5,6α-EC compared to CDNB",hGSTA1 [2],60 fold
same,"Vm^5,6EC","hGSTA1 [2]; 5,6-EC + HA to DDA",0.81 pmol·min^−1·mg prot
same,Km,"hGSTA1 [2]; substrates 5,6α-EC + histamine, product DDA",0.28 µM
same,"Vm^5,6-EC",hGSTA1 [2]; [7],0.81 pmol · min^−1 · mg.pr
same,"Vm^5,6-EC","hGSTA1 [1]; 5,6-EC + GSH to CDO-SG",1.33 pmol·min^−1·mg prot
same,"higher affinity of hGSTA1 for 5,6-EC than for CDNB",hGSTA1 [1]; ratio of Km,73 fold
same,Km,"hGSTA1 [1]; substrates 5,6α-EC + GSH, product CDO-SG",0.44 µM
same,"Vm^5,6-EC",hGSTA1 [1]; [6],1.33 pmol · min^−1 · mg.pr
same,Inhibition of CDNB-SG biosynthesis,hGSTA1 [3],not inhibitors
"CC(C)CCC[C@@H](C)[C@H]1CC[C@H]2[C@@H]3C[C@@H](SC[C@H](NC(=O)CC[C@H](N)C(=O)O)C(=O)NCC(=O)O)[C@@]4(O)C[C@@H](O)CC[C@]4(C)[C@H]3CC[C@]12C [CDO-SG, 3β,5α-dihydroxycholestan-6β-yl-S-glutathione]",weaker capacity to produce CDO-SG than to produce CDNB-SG,hGSTA1 [1]; ratio of maximum velocities,24.10^6 fold
"NCCc1c[nH]cn1 [HA, histamine]",catalytic efficiency higher to transform HA compared to GSH,hGSTA1 [2],60 fold
same,weaker Km for HA than for GSH,hGSTA1 [2]; DDA biosynthesis versus CDO-SG biosynthesis,135 fold
same,Vm^His,hGSTA1 [2]; [7],0.66 pmol · min^−1 · mg · pr
same,Inhibition of CDO-SG biosynthesis,hGSTA1 [1],potent inhibitor
same,Inhibition of CDNB-SG biosynthesis,hGSTA1 [3],not inhibitors
"O=[N+]([O-])c1ccc(Cl)c([N+](=O)[O-])c1 [CDNB, 1-chloro-2,4-dinitrobenzene]",Inhibition of DDA biosynthesis (DDAS),hGSTA1 [2],did not inhibit
same,Inhibition of CDO-SG biosynthesis,hGSTA1 [1],did not inhibit
same,Vm^CDNB,hGSTA1 [3]; CDNB + GSH to CDNB-SG,274 μmol·min^−1·mg prot
same,Km,"hGSTA1 [3]; read-out: Km^CDNB, substrates CDNB + GSH, product CDNB-S-G",32.2 µM
same,Vm^CDNB,"hGSTA1 [3]; substrates CDNB + GSH, product CDNB-S-G, Table 1",274 µmol/min/mg
CC(C)CCC[C@@H](C)[C@H]1CC[C@H]2[C@@H]3C[C@@H](O)[C@@]4(O)C[C@@H](O)CC[C@]4(C)[C@H]3CC[C@]12C [CT],Inhibition of CDO-SG biosynthesis,hGSTA1 [1],potent inhibitors
B1,Km,[4],47 µM
same,Vmax,[4],1.50 pmol·min^−1·mg prot
same,Km,[5],0.35 µM
same,Vmax,[5],0.66 pmol·min^−1·mg prot
